# Source: US10590456B2, “Ribosomes with tethered subunits” (Northwestern University, priority 2014, dated 2020)
# Test system: wild-type ribosomes
# Assay: Antibiotic inhibition of orthogonal sf-gfp translation by wild-type ribosomes in cell-free system
# Format: biochemical, E. coli
# Conditions: pactamycin 100 μM
# Description: Ribosomes (wild-type) or oRibo-T (mixed with wild-type ribosomes) were prepared from SQ171fg cells transformed with pAM552 or poRibo-T1, respectively. An orthogonal sf-gfp gene was PCR amplified from the plasmid pT7oGFP using primers […] (SEQ ID NO: 227) and […] (SEQ ID NO: 228). The transcription-translation reaction was carried out in Δ(ribosome, amino acid, tRNA) PURExpress system as described above. The 7.5 μl reactions were supplemented with 18.75 ng DNA template and 7.5 pmol ribosomes and when needed, clindamycin or pactamycin were added to the reactions to the final concentrations of 50 μM or 100 μM respectively.
smiles,measurement,value
CC(=O)c1cccc(N[C@H]2[C@H](N)[C@@](NC(=O)N(C)C)([C@H](C)O)[C@@](C)(O)[C@@]2(O)COC(=O)c2c(C)cccc2O)c1 [Pactamycin],inhibition of the activity of wild-type ribosomes in the PURE translation system,completely inhibited
